{"source": "patent US8685947B2", "about": "“Compositions and methods for loop diuretics with consistent bioavailability” (Brown University, priority 2010, dated 2014)", "system": "albino, male, Sprague-Dawley subjects", "test": "Diuretic bioactivity analysis: urine output in metabolic cages after oral gelatin capsule dosing", "format": "in vivo, rats", "conditions": "10 mg/kg oral", "procedure": "Subject rats were weighed at the start of each example. Each formulation was prepared and then loaded into size 9 gelatin capsules using a gelatin capsule filler (Torpac, Fairfield, N.J.). Each gelatin capsule was weighed on a microbalance (AD-4 Autobalance, Perkin Elmer, Waltham, Mass.) prior to and after drug loading to prepare oral doses of 2.5 mg, 5 mg, or 10 mg of drug per kg of body mass within 0.5 mg of dose mass.\nEach subject was anesthetized in an induction chamber with 3.5% isoflurane (Novation, Irving, Tex.) for 5-10 minutes. Once anesthetized, the subject was removed from the induction chamber and dosed with a size 9 gelatin capsule containing one of the furosemide formulations using the gelatin capsule dosing syringe (Torpac, Fairfield, N.J.). As a negative control the same subjects were administered empty gelatin capsules without furosemide to quantify the basal urine mass output for comparison. Upon recovery from anesthesia, each subject was then transferred to a metabolic cage for urine collection over a 10 hour period.\nTwelve albino, male, Sprague-Dawley subjects (450 g to 750 g) were used as subjects in the bioactivity analysis example. Subjects were housed in standard bedded cages in accordance with NIH and IACUC guidelines. Immediately after oral gavage with a furosemide formulation, subjects were housed individually in a metabolic cage rack (Unifab Cages, Kalamazoo, Mich.) as shown in FIG. 2. Subjects were given access to food and water ad libitum throughout the study. Metabolic cages were equipped with wire grating floors that allowed for free passage and collection of excreted material during the period of containing the subject. Feces were collected beneath the large opening wire grating floor by smaller opening wire mesh screen, and urine continued through the screen into a funnel for collection into pre-weighed glass scintillation vials (Cole-Parmer, Vernon Hills, Ill.). At two hour intervals after dosing, the glass scintillation vials were weighed (Mettler Toledo, Columbus, Ohio) to quantify urine output as a function of time and were then replaced. Increased urine output above baseline values was used as a non-invasive measure of diuretic activity of the various furosemide formulations examined. After each 10 hour study, subjects were housed in bedded cages for a recovery period of at least 48 hours between metabolic cage studies.\nEach dose was administered to three subjects and the average urine mass produced in the two hour time periods was determined and was compared to the average output of the same subjects that received a sham dosage without any furosemide, referred to in the figures as the basal output.", "data": [{"smiles": "NS(=O)(=O)c1cc(C(=O)O)c(NCc2ccco2)cc1Cl", "note": "[stock furosemide, Furosemide]", "values": [{"measurement": "total urine output at hour 10 relative to the micronized dose", "setting": "N=3, not significantly different", "value": 1.02, "unit": "fold"}, {"measurement": "mean urine mass output two hours after dosing relative to basal urine output", "setting": "N=3, p<0.01", "value": 12.2, "unit": "fold"}, {"measurement": "mean urine mass output two hours after dosing relative to equivalent dose of micronized furosemide", "setting": "N=3, p<0.01", "value": 8.6, "unit": "fold"}, {"measurement": "urine output two hours after oral dosing compared to micronized furosemide and basal control", "setting": "N=3, p<0.01", "value": "statistically significant greater urine output"}]}]}
